Reference: ChEMBL document CHEMBL1138775, “Soft docking and multiple receptor conformations in virtual screening” (J Med Chem, 2004)
pIC50: −log10 of the molar value.

Tests used:
[1] = molecular target: T1, Aldo-keto reductase family 1 member B1 (Sus scrofa, UniProt P80276); test: Inhibition of aldose reductase from pig lenses
[2] = molecular target: T1, Aldo-keto reductase family 1 member B1; test: Inhibition of aldose reductase from pig lenses; no inhibition

pIC50 [1]	pIC50 [2]	SMILES
3.56		O=C(O)c1nnn(-c2cccc(Br)c2)c1-c1ccccc1
	< 3.40	CC(OCc1ccc(Cl)cc1)C(NC(=O)CC(C)(C)C)C(=O)O (stereo not drawn)
5.96		O=C1NC(=O)[C@@]2(CCOc3ccc(F)cc32)N1 [SORBINIL]
5.10		O=C(O)C1CC(=O)N(Cc2ccc(Cl)cc2)C1 (stereo not drawn)
7.42		COc1ccc2c(C(=S)N(C)CC(=O)O)cccc2c1C(F)(F)F [TOLRESTAT]
	< 3.52	CC(OCc1ccccc1)C(NC(=O)OCc1ccccc1)C(=O)O (stereo not drawn)
3.47		Clc1ccc(CN(Cc2ccc(Cl)cc2)c2nnn[nH]2)cc1
4.85		O=C(O)Cc1cn(Cc2cccc(Cl)c2)c2ccccc12
